Structures are written as SMILES. Counter-ions that a name gives are not always drawn. Bounds are passed on as bounds.

The record followed here is patent publication US20250122225A1, “MASP-2 INHIBITORS AND METHODS OF USE” (Omeros Corporation, priority 2023, published 2025).

One assay has as its target T1, MASP-2 (CCP1-CCP2-SP) (Homo sapiens, UniProt O00187).
T1 construct: 15 μL of Enzyme MASP-2 (CCP1-CCP2-SP) in Assay Buffer
Description: Enzymatic assay for MASP-2 inhibitory activity (fluorogenic substrate). Type of assay: biochemical. Here is the method: The MASP-2 assay utilizes a fluorogenic substrate, based on the cleavage site for its natural substrate C2. The assay was run at room temperature in an assay buffer containing 20 mM HEPES, pH 7.4, 140 mM NaCl and 0.1% Tween 20. Assay parameters were adjusted such that the assay was linear with respect to time, enzyme, and substrate concentrations. Under the optimized assays conditions, IC50 values were equivalent to Ki values, except in the few cases of “tight binding” inhibitors. Cases of “tight binding” or possible “slow binding” inhibitors were handled by the methods described in Copeland R. A. (2013) Evaluation of Enzyme Inhibitors in Drug Discovery. 2nd Ed., John Wiley and Sons, Inc., Chapters 5-7.
The MASP-2 assay protocol was carried out as follows. Test compounds were serially diluted in DMSO and then 100 nL of each dilution was transferred to the assay plate(s). 10 μL of Assay Buffer was added, followed by 15 μL of Enzyme MASP-2 (CCP1-CCP2-SP) in Assay Buffer. 15 μL of Substrate in Assay Buffer was then added and the mixture was mixed to start the reaction. After 20 min at room temperature, 15 μL of a stop solution (0.1 M acetic acid) was added, the sample was mixed, and the plates were read on a SpectraMax i3x Microplate Reader with the data exported as an Excel file. Each assay plate included a “no inhibitor” (DMSO only) control, a “no enzyme” control, and a reference inhibitor control. % Activity values=100*(average test comp. fluorescence−average “no enzyme” fluorescence)/(average “DMSO only” fluorescence−average “no enzyme” fluorescence). IC50 and Ki replicate values were very reproducible, with values well within ±2-fold.

The target in the next assay is T2, human α-thrombin (Homo sapiens, UniProt P00734).
T2 construct: enzyme (human α-thrombin (BioPharm® Lab.)) in assay buffer; purchased BioPharm® Lab
Description: Enzymatic assay for thrombin (fluorogenic peptide substrate Boc-VPR-AMC). Type of assay: biochemical. Here is the method:
The thrombin assay utilizes a fluorogenic peptide substrate (Boc-VPR-AMC (R&D Systems) and was run at room temperature in an assay buffer containing 20 mM Hepes, pH 7.4, 140 mM NaCl and 0.1% Tween 20. Assay parameters were adjusted such that the assay was linear with respect to time, enzyme, and substrate concentrations. Under these optimized assays conditions, IC50 values were equivalent to Ki values, except in a few cases of “tight binding” inhibitors. Cases of “tight binding” or possible “slow binding” inhibitors were handled by the methods described in Copeland R. A. (2013) Evaluation of Enzyme Inhibitors in Drug Discovery. 2nd Ed. John Wiley and Sons, Inc., Chapters 5-7.
The thrombin assay protocol was carried out as follows. Test compounds were serially diluted in DMSO and then 100 nL of each dilution was transferred to the assay plate(s). 10 μL of Assay Buffer was added, followed by 15 μL of enzyme (human α-thrombin (BioPharm® Lab.)) in assay buffer. 15 μL of substrate in assay buffer was then added and the sample mixed to start the reaction. After 20 min at room temperature, 15 μL of a stop solution (0.1 M acetic acid) was added, the sample was mixed, and the plates were read on a SpectraMax® i3x Microplate Reader with the data exported as Excel files. Each assay plate included a “no inhibitor” (DMSO only) control, a “no enzyme” control, and a reference inhibitor control. % Activity values=100*(ave. test comp. fluorescence−ave. “no enz” fluorescence)/(ave. “DMSO only” fluorescence−ave. “no enz” fluorescence). IC50 and Ki values were very reproducible, with values falling well within ±2-fold.

T1 sequence (O00187 445-686 limits assumed): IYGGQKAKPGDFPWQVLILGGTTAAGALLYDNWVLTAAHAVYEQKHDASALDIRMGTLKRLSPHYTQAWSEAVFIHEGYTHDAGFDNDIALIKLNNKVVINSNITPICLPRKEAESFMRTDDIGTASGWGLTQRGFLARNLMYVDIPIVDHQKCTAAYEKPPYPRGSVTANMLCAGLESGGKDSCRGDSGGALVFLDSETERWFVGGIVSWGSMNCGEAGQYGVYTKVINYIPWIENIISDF
T1 sequence (O00187 287-444 partner limits assumed): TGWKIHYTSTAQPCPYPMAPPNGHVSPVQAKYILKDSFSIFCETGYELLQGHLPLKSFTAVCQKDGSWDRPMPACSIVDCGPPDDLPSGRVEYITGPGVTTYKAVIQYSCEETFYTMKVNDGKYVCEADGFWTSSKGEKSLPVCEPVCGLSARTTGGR

For the compound `Cc1cc(C)cc(CNc2ncc3n(c2=O)[C@H](C(=O)NC(C)c2cc(Cl)ccc2-n2cnnn2)CC3)c1` (mixture of isomers) [Compound 283, (S)—N—((R/S)-1-(5-chloro-2-(1H-tetrazol-1-yl)phenyl)ethyl)-3-((3,5-dimethylbenzyl)amino)-4-oxo-4,6,7,8-tetrahydropyrrolo[1,2-a]pyrazine-6-carboxamide], the Ki at MASP-2 (CCP1-CCP2-SP) and at human α-thrombin was < 0.5 µM each time.
`Cc1cc(C)cc(CNc2nc(Cl)c3n(c2=O)[C@H](C(=O)NCc2cc4cnccc4[nH]2)CC3)c1` [Compound 1, (S)—N-((1H-pyrrolo[3,2-c]pyridin-2-yl)methyl)-1-chloro-3-((3,5-dimethylbenzyl)amino)-4-oxo-4,6,7,8-tetrahydropyrrolo[1,2-a]pyrazine-6-carboxamide]: the Ki (as a rule, a measure of affinity in units of concentration, obtained from inhibition or displacement) on MASP-2 (CCP1-CCP2-SP) is < 0.5 µM; on human α-thrombin it was 10 to 25 µM.
Regarding `COCCCCNc1nc(Cl)c2n(c1=O)[C@H](C(=O)NCc1ccc(N)nc1C)CC2` [Compound 2, (S)-N-((6-amino-2-methylpyridin-3-yl)methyl)-1-chloro-3-((4-methoxybutyl)amino)-4-oxo-4,6,7,8-tetrahydropyrrolo[1,2-a]pyrazine-6-carboxamide], the Ki is < 0.5 µM at MASP-2 (CCP1-CCP2-SP) and 2.5 to 10 µM on human α-thrombin.
As for `CCc1cccc(CNc2nc(Cl)c3n(c2=O)[C@H](C(=O)NCc2cc4cnccc4[nH]2)CC3)c1` [Compound 3, (S)-N-((1H-pyrrolo[3,2-c]pyridin-2-yl)methyl)-1-chloro-3-((3-ethylbenzyl)amino)-4-oxo-4,6,7,8-tetrahydropyrrolo[1,2-a]pyrazine-6-carboxamide], the inhibition constant (Ki) is < 0.5 µM on MASP-2 (CCP1-CCP2-SP) and 2.5 to 10 µM on human α-thrombin.
On the same counts, the results for `CCc1cccc(CNc2nc(Cl)c3n(c2=O)[C@H](C(=O)NCc2ccc(N)nc2C)CC3)c1` [Compound 4] are < 0.5 µM and 0.5 to 2.5 µM.
Take `Cc1nc(N)ccc1CNC(=O)[C@@H]1CCc2c(Cl)nc(NCc3cccc(CO)c3)c(=O)n21` [Compound 5, (S)-N-((6-amino-2-methylpyridin-3-yl)methyl)-1-chloro-3-((3-(hydroxymethyl)benzyl)amino)-4-oxo-4,6,7,8-tetrahydropyrrolo[1,2-a]pyrazine-6-carboxamide]: the Ki was < 0.5 µM on MASP-2 (CCP1-CCP2-SP) and 0.5 to 2.5 µM on human α-thrombin.
In the case of `O=C(NCc1cc2cnccc2[nH]1)[C@@H]1CCc2c(Cl)nc(NCc3cccc(CO)c3)c(=O)n21` [Compound 6, (S)-N-((1H-pyrrolo[3,2-c]pyridin-2-yl)methyl)-1-chloro-3-((3-(hydroxymethyl)benzyl)amino)-4-oxo-4,6,7,8-tetrahydropyrrolo[1,2-a]pyrazine-6-carboxamide], the Ki on MASP-2 (CCP1-CCP2-SP) was < 0.5 µM; at human α-thrombin, 2.5 to 10 µM.
`COc1cc(C)cc(CNc2nc(Cl)c3n(c2=O)[C@H](C(=O)NCc2cc4cnccc4[nH]2)CC3)c1` [Compound 7, (S)-N-((1H-pyrrolo[3,2-c]pyridin-2-yl)methyl)-1-chloro-3-((3-methoxy-5-methylbenzyl)amino)-4-oxo-4,6,7,8-tetrahydropyrrolo[1,2-a]pyrazine-6-carboxamide]: the Ki on MASP-2 (CCP1-CCP2-SP) was < 0.5 µM; at human α-thrombin, 2.5 to 10 µM.
Regarding `COc1cc(C)cc(CNc2nc(Cl)c3n(c2=O)[C@H](C(=O)NCc2ccc(N)nc2C)CC3)c1` [Compound 8, (S)-N-((6-amino-2-methylpyridin-3-yl)methyl)-1-chloro-3-((3-methoxy-5-methylbenzyl)amino)-4-oxo-4,6,7,8-tetrahydropyrrolo[1,2-a]pyrazine-6-carboxamide], the Ki on MASP-2 (CCP1-CCP2-SP) is < 0.5 µM; at human α-thrombin, 0.5 to 2.5 µM.
In the case of `Cc1ccccc1CNc1nc(Cl)c2n(c1=O)[C@H](C(=O)NCc1cc3cnccc3[nH]1)CC2` [Compound 9, (S)-N-((1H-pyrrolo[3,2-c]pyridin-2-yl)methyl)-1-chloro-3-((2-methylbenzyl)amino)-4-oxo-4,6,7,8-tetrahydropyrrolo[1,2-a]pyrazine-6-carboxamide], the Ki on MASP-2 (CCP1-CCP2-SP) was < 0.5 µM; at human α-thrombin, 2.5 to 10 µM.
In the case of `Cc1ccc(C)c(CNc2nc(Cl)c3n(c2=O)[C@H](C(=O)NCc2ccc(N)nc2C)CC3)c1` [Compound 10, (S)-N-((6-amino-2-methylpyridin-3-yl)methyl)-1-chloro-3-((2,5-dimethylbenzyl)amino)-4-oxo-4,6,7,8-tetrahydropyrrolo[1,2-a]pyrazine-6-carboxamide], the Ki was < 0.5 µM on MASP-2 (CCP1-CCP2-SP) and 0.5 to 2.5 µM at human α-thrombin.
`Cc1ccc(C)c(CNc2nc(Cl)c3n(c2=O)[C@H](C(=O)NCc2cc4cnccc4[nH]2)CC3)c1` [Compound 11, (S)-N-((1H-pyrrolo[3,2-c]pyridin-2-yl)methyl)-1-chloro-3-((2,5-dimethylbenzyl)amino)-4-oxo-4,6,7,8-tetrahydropyrrolo[1,2-a]pyrazine-6-carboxamide]: the results for the Ki at MASP-2 (CCP1-CCP2-SP) and on human α-thrombin were < 0.5 µM and 10 to 25 µM, respectively.
Take `Cc1cccc(CNc2nc(Cl)c3n(c2=O)[C@H](C(=O)NCc2ccc(N)nc2C)CC3)c1F` [Compound 12, (S)-N-((6-amino-2-methylpyridin-3-yl)methyl)-1-chloro-3-((2-fluoro-3-methylbenzyl)amino)-4-oxo-4,6,7,8-tetrahydropyrrolo[1,2-a]pyrazine-6-carboxamide]: the Ki was < 0.5 µM on MASP-2 (CCP1-CCP2-SP) and 2.5 to 10 µM on human α-thrombin.
On the same counts, the results for `Cc1cccc(CNc2nc(Cl)c3n(c2=O)[C@H](C(=O)NCc2cc4cnccc4[nH]2)CC3)c1F` [Compound 13, (S)-N-((1H-pyrrolo[3,2-c]pyridin-2-yl)methyl)-1-chloro-3-((2-fluoro-3-methylbenzyl)amino)-4-oxo-4,6,7,8-tetrahydropyrrolo[1,2-a]pyrazine-6-carboxamide] are < 0.5 µM and 10 to 25 µM.
As for `Cc1cccc(CNc2nc(Cl)c3n(c2=O)[C@H](C(=O)NCc2cc4cnccc4[nH]2)CC3)c1C` [Compound 15, (S)-N-((1H-pyrrolo[3,2-c]pyridin-2-yl)methyl)-1-chloro-3-((2,3-dimethylbenzyl)amino)-4-oxo-4,6,7,8-tetrahydropyrrolo[1,2-a]pyrazine-6-carboxamide], the results for the Ki at MASP-2 (CCP1-CCP2-SP) and at human α-thrombin were < 0.5 µM and 2.5 to 10 µM, respectively.
As to `Cc1nc(N)ccc1CNC(=O)[C@@H]1CCc2c(Cl)nc(NCc3cccc(C(F)F)c3)c(=O)n21` [Compound 16, (S)-N-((6-amino-2-methylpyridin-3-yl)methyl)-1-chloro-3-((3-(difluoromethyl)benzyl)amino)-4-oxo-4,6,7,8-tetrahydropyrrolo[1,2-a]pyrazine-6-carboxamide], the Ki is < 0.5 µM on MASP-2 (CCP1-CCP2-SP) and 2.5 to 10 µM at human α-thrombin.
On to `O=C(NCc1cc2cnccc2[nH]1)[C@@H]1CCc2c(Cl)nc(NCc3cccc(C(F)F)c3)c(=O)n21` [Compound 17, (S)-N-((1H-pyrrolo[3,2-c]pyridin-2-yl)methyl)-1-chloro-3-((3-(difluoromethyl)benzyl)amino)-4-oxo-4,6,7,8-tetrahydropyrrolo[1,2-a]pyrazine-6-carboxamide], for which the figures for the Ki on MASP-2 (CCP1-CCP2-SP) and on human α-thrombin were < 0.5 µM and 10 to 25 µM, respectively.
In the case of `COc1ccnc(CNC(=O)[C@@H]2CCc3cnc(NCc4cc(C)cc(F)c4)c(=O)n32)c1F` [Compound 190, (S)-N-((3-fluoro-4-methoxypyridin-2-yl)methyl)-3-((3-fluoro-5-methylbenzyl)amino)-4-oxo-4,6,7,8-tetrahydropyrrolo[1,2-a]pyrazine-6-carboxamide trifluoroacetate], the Ki on human α-thrombin lay in the range of 2.5 to 10 µM.
